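Following 48 hours of exposure in 96-well plates, responses at five concentrations were used to interpolate endpoints linearly. GI50 = concentration required for 50% inhibition of growth.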 The source made the active and inactive calls. Rule as the data show it: active = GI50 up to about 1.1 µM and inactive = higher.
Experiments:
Assay in all cases: NCI anticancer screen, dose series, 48 h
SK-MEL-28 = test system: SK-MEL-28
SNB-19 = test system: SNB-19
DU-145 = test system: DU-145
RXF 393 = test system: RXF 393
CCRF-CEM = test system: CCRF-CEM
NCI-H226 = test system: NCI-H226
M14 = test system: M14
SW-620 = test system: SW-620
U-251 = test system: U-251
CAKI-1 = test system: CAKI-1
NCI/ADR-RES = test system: NCI/ADR-RES
IGROV-1 = test system: IGROV-1
T47D = test system: T47D
A498 = test system: A498
MCF7 = test system: MCF7
TK-10 = test system: TK-10
BT-549 = test system: BT-549
NCI-H522 = test system: NCI-H522

Measured: GI50

O=C1NC(=O)C2=C1CCC2O (configuration not stated)
inactive: SK-MEL-28 > 100 µM | SNB-19 > 100 µM | DU-145 > 100 µM | RXF 393 > 100 µM | CCRF-CEM > 100 µM | NCI-H226 > 100 µM | M14 > 100 µM | SW-620 > 100 µM | U-251 > 100 µM | CAKI-1 > 100 µM | NCI/ADR-RES > 100 µM | IGROV-1 > 100 µM | T47D > 100 µM | A498 > 100 µM | MCF7 > 100 µM | TK-10 > 100 µM

O=C1/C(=C/c2cccs2)NC(=S)N1CN1CCCC(CO)C1 (configuration not stated)
inactive: SK-MEL-28 > 100 µM | SNB-19 > 100 µM | DU-145 > 100 µM | CCRF-CEM > 100 µM | NCI-H226 > 100 µM | M14 > 100 µM | SW-620 > 100 µM | U-251 > 100 µM | NCI/ADR-RES > 100 µM | IGROV-1 > 100 µM | A498 32.2 µM | MCF7 > 100 µM | TK-10 > 100 µM

Cc1nc(C(N)=S)sc1C(=O)C/C(=N/N)C(=O)Nc1cccc(Cl)c1C
inactive: SK-MEL-28 > 100 µM | SNB-19 > 100 µM | BT-549 > 100 µM | NCI-H522 > 100 µM | RXF 393 > 100 µM | CCRF-CEM > 100 µM | NCI-H226 > 100 µM | M14 > 100 µM | SW-620 > 100 µM | U-251 > 100 µM | CAKI-1 > 100 µM | NCI/ADR-RES > 100 µM | IGROV-1 > 100 µM | T47D > 100 µM | A498 > 100 µM | MCF7 > 100 µM | TK-10 > 100 µM

CCCCCCCCCCOC1C(C(C)OCCCN(C)C)OC2OC3(CCCCC3)OC21 (configuration not stated)
inactive: SK-MEL-28 12.2 µM | SNB-19 12.4 µM | DU-145 17.1 µM | NCI-H522 17.9 µM | RXF 393 14.9 µM | CCRF-CEM 10.7 µM | NCI-H226 17.2 µM | M14 3.33 µM | SW-620 12.7 µM | U-251 14.5 µM | CAKI-1 13.7 µM | NCI/ADR-RES 17 µM | IGROV-1 14.3 µM | T47D 18.1 µM | MCF7 26.2 µM | TK-10 23.1 µM

Oc1ccc2ccccc2c1/N=N/c1cc(Cl)ccc1Cl
inactive: SK-MEL-28 > 50 µM | SNB-19 15.8 µM | BT-549 > 50 µM | NCI-H522 17.1 µM | RXF 393 27 µM | CCRF-CEM 17.9 µM | NCI-H226 49 µM | M14 14.6 µM | SW-620 32.6 µM | U-251 9.16 µM | CAKI-1 34.4 µM | NCI/ADR-RES 31.6 µM | IGROV-1 7.67 µM | TK-10 16 µM

CC(=O)N(CN1C(=O)CCC1C(=O)O)c1ccccc1Cl (configuration not stated)
inactive: SK-MEL-28 > 100 µM | SNB-19 > 100 µM | DU-145 > 100 µM | NCI-H522 > 100 µM | RXF 393 > 100 µM | CCRF-CEM > 100 µM | NCI-H226 > 100 µM | M14 > 100 µM | SW-620 > 100 µM | U-251 > 100 µM | CAKI-1 > 100 µM | NCI/ADR-RES > 100 µM | IGROV-1 > 100 µM | T47D > 100 µM | A498 > 100 µM | MCF7 > 100 µM | TK-10 > 100 µM

COc1c(C2(c3ccc(F)cc3)SCCCS2)c(=O)c1=O
inactive: SK-MEL-28 > 100 µM | SNB-19 > 100 µM | DU-145 > 100 µM | BT-549 > 100 µM | RXF 393 > 100 µM | CCRF-CEM > 100 µM | NCI-H226 > 100 µM | M14 > 100 µM | SW-620 > 100 µM | U-251 > 100 µM | CAKI-1 > 100 µM | NCI/ADR-RES > 100 µM | MCF7 > 100 µM | TK-10 > 100 µM

COc1ccc(-c2c3c(n(C4OC(CO)C(O)C(O)C4O)c(=S)c2C#N)CCCC3)cc1 (configuration not stated)
inactive: RXF 393 > 100 µM | CCRF-CEM 52 µM | NCI-H226 > 100 µM | M14 > 100 µM | SW-620 > 100 µM | CAKI-1 > 100 µM | NCI/ADR-RES > 100 µM | IGROV-1 > 100 µM | T47D 58.5 µM | A498 > 100 µM | MCF7 > 100 µM | TK-10 > 100 µM

COc1ccc(Nc2nc3ccc(C(F)(F)F)cc3nc2C(=O)O)cc1OC
inactive: SK-MEL-28 41.6 µM | SNB-19 23.6 µM | DU-145 28.6 µM | BT-549 22.5 µM | NCI-H522 25.8 µM | RXF 393 29.6 µM | NCI-H226 36.7 µM | SW-620 29.2 µM | U-251 27.4 µM | CAKI-1 39.5 µM | NCI/ADR-RES 20.2 µM | IGROV-1 34.3 µM | A498 27.9 µM | MCF7 33.9 µM

COC(=O)C(=O)C(C(=O)C(=O)Nc1ccc(C)c(C)c1)c1nc2ccc([N+](=O)[O-])cc2nc1O (configuration not stated)
inactive: SK-MEL-28 > 100 µM | SNB-19 18.5 µM | BT-549 > 100 µM | NCI-H522 48.4 µM | RXF 393 > 100 µM | CCRF-CEM > 100 µM | NCI-H226 > 100 µM | M14 > 100 µM | SW-620 > 100 µM | U-251 > 100 µM | CAKI-1 > 100 µM | NCI/ADR-RES > 100 µM | IGROV-1 > 100 µM | T47D > 100 µM | A498 > 100 µM | MCF7 > 100 µM | TK-10 > 100 µM

O=[N+]([O-])c1cccc(-c2nc(-c3ccccc3)c(-c3ccccc3)[nH]2)c1
inactive: SK-MEL-28 > 100 µM | SNB-19 > 100 µM | DU-145 > 100 µM | NCI-H522 > 100 µM | RXF 393 > 100 µM | CCRF-CEM > 100 µM | NCI-H226 > 100 µM | M14 > 100 µM | SW-620 > 100 µM | U-251 > 100 µM | CAKI-1 > 100 µM | NCI/ADR-RES > 100 µM | IGROV-1 > 100 µM | T47D > 100 µM | A498 > 100 µM | MCF7 > 100 µM | TK-10 > 100 µM

CCCCCCCN(CCCCCCC)CC(O)c1cc2ccccc2c2cc(Br)ccc12 (configuration not stated)
inactive: SK-MEL-28 36.6 µM | SNB-19 38.7 µM | DU-145 8.07 µM | NCI-H522 28.7 µM | CCRF-CEM 40.9 µM | M14 22.6 µM | SW-620 23.1 µM | U-251 18.3 µM | CAKI-1 47.6 µM | NCI/ADR-RES > 100 µM | IGROV-1 62.1 µM | T47D 43 µM | A498 > 100 µM | MCF7 12.7 µM | TK-10 47.6 µM

CC[C@H](CO)Nc1nc(NCc2ccccc2)c2ncn(C(C)C)c2n1 [SELICICLIB]
inactive: DU-145 16.9 µM | NCI-H522 16.4 µM | RXF 393 4.9 µM | CCRF-CEM > 100 µM | NCI-H226 19.2 µM | M14 27.9 µM | SW-620 82.4 µM | U-251 53.8 µM | CAKI-1 6.17 µM | NCI/ADR-RES 6.97 µM | IGROV-1 5.78 µM | T47D 16.3 µM | A498 48.1 µM | MCF7 13.5 µM | TK-10 64.1 µM
